The test system of the assay is Rat adult neural stem cell line ANSC-7 cells. The assay can be described thus: Proliferation promoting activity on neural stem cells (Test Example 1). The settings on record: relative value, negative control (DMSO) = 100%, wells without cells = 0%, absorbance at 490 nm; for activity at 0.01 µM: at 10 nmol/L; for activity at 0.1 µM: at 100 nmol/L; for activity at 0.001 µM: at 1.0 nmol/L. In kind it is cell-based. The method, then:
Rat adult neural stem cell line ANSC-7 cells prepared by the method described in the following Reference Test Example 1 were suspended in assay medium at a density of 1.6×10^5 cells/mL; inoculated at 0.1 mL in a 96 well plate (manufactured by Costar) of which surface was coated with polyornithine and laminin; and cultured overnight at 37° C. under an atmosphere of 5% CO2. Thereafter, 50 μL of the culture supernatant was removed, and 50 μL of a test compound which was serially diluted with the assay medium to 2 times of the final concentration or DMSO (negative control) was added to each well. For the serial dilution of a test compound, non-specific adsorption was minimized by using ProteoSave 96 U plates (manufactured by SUMILON), siliconized 1.5 mL tubes (manufactured by Assist) and Pitarack siliconized tips (manufactured by Nacalai). After the culturing for 48 hours, 50 μL of the culture supernatant was replaced by 50 μL of the assay medium containing 0.1% bovine fetal serum. Furthermore, after the culturing for 48 hours, Living Cell Count Reagent SF (manufactured by Nacalai Tesque) was added at the volume of 10 μL per well to the medium. After the culturing for 3 hours at 37° C. in the incubator which was set at 5% CO2, the resulting solution was stirred for one minute and then the absorbance at 490 nm (control wavelength 655 nm) was measured by using Microplate Spectrophotometer Emax (manufactured by Molecular Devices). By regarding the measured value of well to which the cells were not inoculated as 0%, and the measured value of negative control as 100%, relative values in the test compound addition group were calculated.
After putting a 7-week-old Sprague Dawley Rat to sleep by ether anesthesia and subsequent decapitation, the skull was cut open from the parietal region to extract the brain. Under a microscope, tissues including circumventricular region were isolated from the extracted brain by using ophthalmic scissors and tweezers. The tissues including circumventricular region were cut into fragments of about 1 mm^3 using ophthalmic scissors and scalpels and then subjected to 30 minutes of digestion reaction at 37° C. in 5 mL of Hanks' buffer (HBSS buffer, manufactured by Invitrogen) containing 2.5 U/mL of papain, 250 U/mL of DNase (all manufactured by Worthington, Freehold, N.J.) and 1 U/mL of a neutral protease (Dispase, manufactured by Boehringer-Mannheim Corp.). The mixture of cells and tissues obtained by the reaction was washed three times with DMEM (manufactured by Invitrogen) containing 10% fetal bovine serum (manufactured by Hyclone) and then dissolved in the DMEM containing 10% fetal bovine serum, followed by removing the undigested materials using a nylon mesh of […].
The resulting crude cells extract was cultured overnight on a culture dish of 10 cm, in an incubator of 37° C. using DMEM/F12 medium (manufactured by Invitrogen) containing 10% fetal bovine serum. On the next day, the medium was replaced with DMEM/F12 containing 1% of N-2 additives (manufactured by Invitrogen) and 20 ng/mL of FGF 2 (manufactured by Pepro Tech) and the culturing was started. Once in 3 days, half of the medium was replaced with new DMEM/F12 containing 1% of N-2 additives and 20 ng/mL of FGF 2 and the culturing was continued.
When a small colony consisting of small cells was formed, it was treated with 1% trypsin for 30 seconds to 1 minute, and the cells detached were harvested. The harvested cells were inoculated on a multiple well culture dish (manufactured by Fisher Scientific) which had been coated at room temperature overnight using 10 μg/mL of polyornithine (manufactured by Sigma) and at 37° C. overnight using 5 μg/mL of mouse EHS tumor-derived laminin (Becton Dickinson), and the culturing was continued.
By continuing the above-mentioned culturing, small cells having small protrusion and thickness were concentrated. The cells were used as adult neural stem cells in the above-mentioned test (Test Example 1).

These results are taken from patent US8952003B2, “Sterol derivative” (Kyowa Hakko Kirin Co., Ltd, priority 2009, dated 2015).

The structures appear in SMILES notation. Some results are limits rather than exact numbers.

Regarding `CC(C)C(C)CC[C@H](C)[C@H]1CC[C@H]2C3=C(CC[C@]12C)[C@@]1(C)CC[C@H](O)C[C@@H]1C(=O)O3` (stereo in doubt) [Compound 76, 7-Oxa-ergosta-8(9)-en-6-on-3-ol], the activity at 0.01 µM was not below 125%. For the compound `CC(C)C(=O)CC[C@H](C)[C@H]1CC[C@H]2C3=C(CC[C@]12C)[C@@]1(C)CC[C@H](O)C[C@@H]1C(=O)O3` (stereo in doubt) [Compound 78, 7-Oxa-cholest-8(9)-en-6,24-dion-3-ol], the activity at 0.1 µM is not below 125%. For the compound `CC(CO)CCC[C@H](C)[C@H]1CCC2=C3OC(=O)[C@H]4C[C@@H](O)CC[C@]4(C)[C@H]3CC[C@@]21C` (stereo in doubt) [Compound 90, 7-oxa-cholest-8(14)-en-6-on-3,26-diol], the activity at 0.01 µM is not below 125%. For the compound `CC(C)CCC[C@H](C)[C@H]1CC[C@H]2C3=C(CC[C@]12C)[C@@]1(C)CCC(=NO)CC1C(=O)O3` (stereo partly drawn) [Compound 3, (S)-3-Hydroxyimino-7-oxa-8-cholesten-6-one], the activity at 0.001 µM was not below 125%.

In the case of `CC(C)CCC[C@@H](C)[C@H]1CC[C@H]2C3=C(CC[C@]12C)[C@]1(C)[C@H](CC=C[C@@H]1O)C(=O)O3` [Compound 21, (1S,5S)-1-Hydroxy-7-oxa-2,8-cholestadien-6-one], the activity at 0.1 µM is not below 125%. The same measure, in the same setting: with `C=CC[C@]12C[C@@H](O)CC[C@]1(C)C1=C(OC2=O)[C@@H]2CC[C@H]([C@H](C)CCCC(C)C)[C@@]2(C)CC1` [Compound 30, (3S,5S)-3-hydroxy-5-allyl-7-oxa-8-cholesten-6-one] the figure was not below 125%. On to `CC(C)CCC[C@@H](C)[C@H]1CC[C@H]2C3=C(CC[C@]12C)[C@@]1(C)CC[C@H](OCCO)C[C@@H]1C(=O)O3` [Compound 31, (3S,5S)-3-(2-Hydroxy)ethoxy-7-oxa-8-cholesten-6-one], for which the activity at 0.001 µM was not below 125%.

Turning to `CC(C)CCC[C@@H](C)[C@H]1CC[C@H]2C3=C(CC[C@]12C)[C@]1(C)[C@H](C[C@@H](O)[C@H](O)[C@@H]1O)C(=O)O3` [Compound 32, (1R,2S,3R,5S)-1,2,3-trihydroxy-7-oxa-8-cholesten-6-one], the activity at 0.001 µM was not below 125%. Take `CC(C)CCC[C@@H](C)[C@H]1CC[C@H]2C3=C(CC[C@]12C)[C@@]1(C)CCNC(=O)C[C@@H]1C(=O)O3` [Compound 34, (1R,3aR,5aS,10aS,12aR)-10a,12a-Dimethyl-1-[(R)-6-methylheptan-2-yl]-1,2,3,3a,5a,6,9,10,10a,11,12,12a-dodecahydro-8-azacyclohepta[c]cyclopenta[h]chromen-5,7-dione]: the activity at 0.01 µM is not below 125%. In the case of `CC(C)CCC[C@@H](C)[C@H]1CC[C@H]2C3=C(CC[C@]12C)[C@@]1(C)CC[C@H](OCc2ccccc2)C[C@@H]1C(=O)O3` [Compound 47, (3S,5S)-3-Benzyloxy-7-oxa-8-cholesten-6-one], the activity at 0.1 µM is not below 125%. With `CC(C)CCC[C@@H](C)[C@H]1CC[C@H]2C3=C(CC[C@]12C)[C@@]1(C)C[C@@H](O)C(=O)C[C@@H]1C(=O)O3` [Compound 48, (2R,5S)-2-Hydroxy-7-oxa-8-cholesten-3,6-dione], the activity at 0.001 µM was not below 125%. On the same count and under the same terms, with `CC(C)CCC[C@@H](C)[C@H]1CC[C@H]2C3=C(CC[C@]12C)[C@@]1(C)C[C@@H](O)[C@H](O)C[C@@H]1C(=O)O3` [Compound 53, (2R,3R,5S)-2,3-Dihydroxy-7-oxa-8-cholesten-6-one] the figure was not below 125%; with `C=CCOC[C@@H](C)[C@H]1CC[C@H]2C3=C(CC[C@]12C)[C@@]1(C)CC[C@H](OCOC)C[C@@H]1C(=O)O3` [Compound 66, (1R,3aR,5aS,7S,9aS,11aR)-1-[(S)-1-Allyloxypropan-2-yl]-7-methoxymethoxy-9a,11a-dimethyl-1,2,3,3a,5a,6,7,8,9,9a,11,11a-dodecahydrobenzo[c]cyclopenta[h]chromen-5(10H)-one], not below 125%.

With `COCO[C@H]1CC[C@]2(C)C3=C(OC(=O)[C@H]2C1)[C@@H]1CC[C@H]([C@H](C)CNCC(C)C)[C@@]1(C)CC3` [Compound 69, (1R,3aR,5aS,7S,9aS,11aR)-1-[(S)-1-Isobutylaminopropan-2-yl]-7-methoxymethoxy-9a,11a-dimethyl-1,2,3,3a,5a,6,7,8,9,9a,11,11a-dodecahydrobenzo[c]cyclopenta[h]chromen-5(10H)-one], the activity at 0.001 µM was not below 125%. Regarding `COCO[C@H]1CC[C@]2(C)C3=C(OC(=O)[C@H]2C1)[C@@H]1CC[C@H]([C@H](C)CN2CCOCC2)[C@@]1(C)CC3` [Compound 72, (1R,3aR,5aS,7S,9aS,11aR)-7-Methoxymethoxy-9a,11a-dimethyl-1[(S)-1-morpholinopropan-2-yl]-1,2,3,3a,5a,6,7,8,9,9a,11,11a-dodecahydrobenzo[c]cyclopenta[h]chromen-5(10H)-one], the activity at 0.1 µM is not below 125%. On to `COCO[C@H]1CC[C@]2(C)C3=C(OC(=O)[C@H]2C1)[C@@H]1CC[C@H]([C@H](C)CCCCCCO)[C@@]1(C)CC3` [Compound 74, (1R,3aR,5aS,7S,9aS,11aR)-1-[(R)-8-Hydroxyoctan-2-yl]-7-methoxymethoxy-9a,11a-dimethyl-1,2,3,3a,5a,6,7,8,9,9a,11,11a-dodecahydrobenzo[c]cyclopenta[h]chromen-5(10H)-one], for which the activity at 0.01 µM was not below 125%. With `CC(CO)CCC[C@H](C)[C@H]1CC[C@H]2C3=C(CC[C@]12C)[C@@]1(C)CC[C@H](O)C[C@@H]1C(=O)O3` (stereo partly shown) [Compound 79, 7-Oxa-cholest-8(9)-en-6-on-3,26-diol], the activity at 0.001 µM was not below 125%.

`CC(CCC[C@H](C)[C@H]1CC[C@H]2C3=C(CC[C@]12C)[C@@]1(C)CC[C@H](O)C[C@@H]1C(=O)O3)C(=O)O` (stereo partly shown) [Compound 80, 7-Oxa-3-hydroxy-cholest-8(9)-en-6-on-26-acid]: the activity at 0.01 µM was not below 125%. For `CC(C)COC[C@@H](C)[C@H]1CC[C@H]2C3=C(CC[C@]12C)[C@@]1(C)CC[C@H](O)C[C@@H]1C(=O)O3` [Compound 81, (1R,3aR,5aS,7S,9aS,11aR)-7-Hydroxy-1-[(S)-1-isobutyloxypropan-2-yl]-9a,11a-dimethyl-1,2,3,3a,5a,6,7,8,9,9a,11,11a-dodecahydrobenzo[c]cyclopenta[h]chromen-5(10H)-one], the activity at 0.001 µM is not below 125%.

Regarding `CC(C)CNC[C@@H](C)[C@H]1CC[C@H]2C3=C(CC[C@]12C)[C@@]1(C)CC[C@H](O)C[C@@H]1C(=O)O3` [Compound 83, (1R,3aR,5aS,7S,9aS,11aR)-7-Hydroxy-1-[(S)-1-isobutylaminopropan-2-yl]-9a,11a-dimethyl-1,2,3,3a,5a,6,7,8,9,9a,11,11a-dodecahydrobenzo[c]cyclopenta[h]chromen-5(10H)-one], the activity at 0.001 µM is not below 125%. `CC(C)CCC[C@@H](C)[C@H]1CC[C@H]2[C@H]3OC(=O)[C@H]4CC(=O)CC[C@]4(C)[C@H]3CC[C@]12C` [Compound 93, (1R,3aR,3bR,5aS,9aR,9bR,11aR)-9a,11a-Dimethyl-1-[(R)-6-methylheptan-2-yl]dodecahydrobenzo[c]cyclopenta[h]chromen-5,7(3bH,8H)-dione]: the activity at 0.1 µM is not below 125%. As to `CC(C)CCC[C@@H](C)[C@H]1CC[C@@H]2[C@]1(C)CC[C@@]13O[C@@]21OC(=O)[C@H]1CC(=O)CC[C@@]13C` [Compound 94, (5S,8S,9S)-7-Oxa-8,9-epoxy-3,6-cholestadione], the activity at 0.01 µM was not below 125%.
